Test [1] has as its target AtBAN (Arabidopsis thaliana BAN) protein (Arabidopsis thaliana, UniProt Q9SEV0). It counts as biochemical. Particulars: for Products formed on incubation with AtBAN protein extract: NADPH as coenzyme, 4-month old frozen protein extracts, HPLC.
The test system of test [2] is MtBAN (Medicago truncatula BAN homolog) protein. Briefly: Anthocyanidin reductase activity assay with recombinant MtBAN protein extract (HPLC of products). It counts as biochemical. As to conditions: for Products formed on incubation with MtBAN protein extract: NADPH, 100 mM Tris-HCl pH 7.0, 30° C., 30 min, HPLC.
The target in test [3] is T1, anthocyanidin reductase (Vitis vinifera, UniProt Q5FB34).
T1 construct: 100 μM cyanidin and 50-25 μg desalted crude enzyme; from tissue; host or cells: skin of mature grape fruit
The test is described as follows: Anthocyanidin reductase assay with desalted crude enzyme from grape fruit skin. The class given is biochemical. Particulars: 1 mM NADPH, 100 μM cyanidin, 30° C., 30 min. As for the experimental part: (§1) Lotus corniculatus, Desmodium uncinatum and Barley cv. Morex were grown in a greenhouse. Young leaves from L. corniculatus, unexpanded leaves, and young pods as well as open flowers and flower buds from D. uncinatum, and young grains from Barley were collected. Seed testas of barley grains were excised and pooled together for enzyme extraction. Mature grape fruit stored at −80° C. was treated in pH 7 100 mM Tris.HCl buffer for 30 seconds for isolating the skin for enzyme extraction.
(§2) A fresh one-gram leaf sample of L. corniculatus, one-gram testa from barley, and 9 grams of grape fruit skin, as well as two grams of flowers, 3 grams of young pods and 3 grams of young unexpanded leaves from Desmodium uncinatum, were independently ground into fine powders in liquid nitrogen. The follow buffer systems were used for enzyme extraction. Extraction buffer 1: pH 7 100 mM Tris.HCl, 10% glycerol and 2 mM 1,4-dithiothreitol; Extraction buffer 2: pH 8 50 mM phosphate buffer, 10% glycerol, 1.5% polyethyleneglycol 4000 (PEG-4000), 2 mM pH 8.0 Na-EDTA, 25 mM sodium ascorbate, 20 mM β-mecaptoenthanol, and 5 mM 1,4-dithiothreitol; Extraction buffer 3: pH 8 100 mM Tris.HCl, 10% glycerol 1.5% polyethyleneglycerol 4000 (PEG-4000), 2 mM pH 8.0 Na-EDTA, 25 mM sodium ascorbate, 80 mM β-mecaptoenthanol, and 5 mM 1,4-dithiothreitol. […]

Test [4] concerns anthocyanidin reductase. Briefly: Anthocyanidin reductase assay with desalted crude enzyme from Desmodium uncinatum flowers, leaves and young pods. The class given is biochemical. Particulars: 1 mM NADPH, 100 μM cyanidin, 30° C., 30 min. How it is done: as §1, §2
In test [5] the test system is anthocyanidin reductase. Briefly: Anthocyanidin reductase assay with desalted crude enzyme from Lotus corniculatus leaves. The class given is biochemical. Particulars: 1 mM NADPH, 100 μM cyanidin, 30° C., 30 min. How it is done:
as §1, §2

The subject of test [6] is anthocyanidin reductase. The test is described as follows: Anthocyanidin reductase assay with desalted crude enzyme from barley testa. As to conditions: 1 mM NADPH, 100 μM cyanidin, 30° C., 30 min. The class given is biochemical, Hordeum vulgare. How it is done:
as §1, §2

Where [7] appears, read: reactions containing leucoanthocyanidins.

Sequence of AtBAN (Arabidopsis thaliana BAN) protein (Q9SEV0 other isoform, or with tags, fused parts or gaps K55Q/I146L/V156I/E157D/T179K/K185E): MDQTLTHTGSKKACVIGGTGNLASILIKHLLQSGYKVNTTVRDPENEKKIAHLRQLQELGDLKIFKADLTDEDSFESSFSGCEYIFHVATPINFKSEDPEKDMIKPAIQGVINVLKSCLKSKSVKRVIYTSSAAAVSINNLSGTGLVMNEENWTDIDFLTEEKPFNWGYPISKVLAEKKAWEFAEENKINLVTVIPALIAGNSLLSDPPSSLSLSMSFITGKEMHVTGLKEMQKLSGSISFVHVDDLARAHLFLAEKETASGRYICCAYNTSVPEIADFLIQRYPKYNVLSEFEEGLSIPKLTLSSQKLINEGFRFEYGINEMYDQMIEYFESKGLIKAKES
T1 sequence (Q5FB34 whole entry R248Q): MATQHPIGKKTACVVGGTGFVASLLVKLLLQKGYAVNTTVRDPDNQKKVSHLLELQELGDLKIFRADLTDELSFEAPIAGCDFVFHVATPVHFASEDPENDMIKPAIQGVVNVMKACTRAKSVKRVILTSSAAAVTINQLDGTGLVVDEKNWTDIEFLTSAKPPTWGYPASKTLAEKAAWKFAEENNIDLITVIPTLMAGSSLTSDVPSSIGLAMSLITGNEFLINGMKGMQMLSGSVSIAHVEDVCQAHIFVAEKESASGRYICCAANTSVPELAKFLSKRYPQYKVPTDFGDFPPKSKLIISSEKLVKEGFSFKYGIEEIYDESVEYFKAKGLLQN

For `Oc1cc(O)c2c(c1)O[C@H](c1ccc(O)c(O)c1)[C@@H](O)C2` [(+)-catechin], in test [1], the “Products formed on incubation with AtBAN protein extract” value is “does not produce (2S,3R) configuration (−) catechin or (−)epicatechin”. Also, the “Products formed on incubation with MtBAN protein extract” value in test [2] is “does not produce (2S,3R) configuration (−) catechin or (−)epicatechin”.

For `Oc1cc(O)c2c(c1)O[C@H](c1ccc(O)c(O)c1)[C@H](O)C2` [(−)epicatechin, (−)-epicatechin], the “Products formed on incubation with AtBAN protein extract” value in test [1] was “does not produce (2S,3R) configuration (−) catechin or (−)epicatechin”. Also, in test [2], the “Products formed on incubation with MtBAN protein extract” value was “does not produce (2S,3R) configuration (−) catechin or (−)epicatechin”.

For the compound `NC(=O)C1=CN([C@@H]2O[C@H](COP(=O)(O)OP(=O)(O)OC[C@H]3O[C@@H](n4cnc5c(N)ncnc54)[C@H](O)[C@@H]3O)[C@@H](O)[C@H]2O)C=CC1` [NADH], the “Conversion with NADH relative to the level achieved with NADPH” value in test [2] (NADH 2 mM final concentration substituted for NADPH) is “approximately 50%”.

Consider `Oc1cc(O)c2cc(O)c(-c3ccc(O)c(O)c3)[o+]c2c1.[Cl-]` [cyanidin, cyanidin chloride], for which, at anthocyanidin reductase [3], the “Product formed by grape fruit skin enzyme” value is on record as “converted cyanidin into epicatechin”. The “Products formed on incubation with AtBAN protein extract” value in test [1] is “catalyze the reduction of cyanidin to epicatechin”. Also, the “Product formed by Desmodium uncinatum flower, leaf and young pod enzyme” value in the test with anthocyanidin reductase [4] is “converted cyanidin into epicatechin”. Moreover, the “Products formed on incubation with MtBAN protein extract” value in test [2] was “reducing cyanidin to the corresponding flavan-3-ols, catechin and epicatechin”. Also, the “Product formed by Lotus corniculatus leaf enzyme” value in the test with anthocyanidin reductase [5] is listed as “converted cyanidin into epicatechin”. Besides, the “Product formed by barley testa enzyme” value in the test with anthocyanidin reductase [6] is “converted cyanidin into epicatechin”.

Take `Oc1cc(O)c2cc(O)c(-c3cc(O)c(O)c(O)c3)[o+]c2c1` [delphinidin, delphinidin chloride]: the “Products formed on incubation with AtBAN protein extract” value in test [1] is listed as “delphinidin into gallocatechin”. Besides, in test [2], the “Products formed on incubation with MtBAN protein extract” value was “catalyzed the reduction of delphinidin into putative gallo-catechin and epi-gallocatechin”.

Consider `Oc1ccc(-c2[o+]c3cc(O)cc(O)c3cc2O)cc1` [pelargonidin, Pelargonidin chloride], for which, in test [1], the “Products formed on incubation with AtBAN protein extract” value is “pelargonidin into epi-alfzelechin”. The “Products formed on incubation with MtBAN protein extract” value in test [2] is given as “catalyzed the reduction of pelargonidin into a new compound eluting at 33.6 min”.

Take leucoanthocyanidins: the “LAR activity with recombinant AtBAN” value in test [1] (setting [7]) is given as “no LAR activity was observed”. Besides, in test [2] (setting [7]), the “LAR activity with recombinant MtBAN” value is on record as “no LAR activity was observed”.

The record behind these values is patent publication US7709701B2, “Genetic manipulation of condensed tannins” (The Samuel Roberts Noble Foundation, priority 2004, dated 2010).
